Columns and labels:
Experiment in all cases: relative viability (nuclei count vs DMSO), 5 days (fraction); higher = more cells survive
A-427 = test system: A-427
Outline: (§1)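 Relative viability is defined as nuclei in treated wells over nuclei in vehicle wells. Duplicate plates were run and medians reported. Lung cancer cell lines in 1536-well plates were dosed by pin tool one day after seeding, with one drug or with a fixed anchor-drug dose plus five library-drug doses (not always all listed) in √10 steps, and nuclei were counted after 5 days.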

H3255 = test system: H3255
Outline: as §1

HARA = test system: HARA
Outline: as §1

HCC-15 = test system: HCC-15
Outline: as §1

HCC-366 = test system: HCC-366
Outline: as §1

LXF-289 = test system: LXF-289
Outline: as §1

NCI-H1437 = test system: NCI-H1437
Outline: as §1

NCI-H1755 = test system: NCI-H1755
Outline: as §1

NCI-H1793 = test system: NCI-H1793
Outline: as §1

NCI-H1915 = test system: NCI-H1915
Outline: as §1

NCI-H1975 = test system: NCI-H1975
Outline: as §1

NCI-H2009 = test system: NCI-H2009
Outline: as §1

NCI-H2023 = test system: NCI-H2023
Outline: as §1

NCI-H2405 = test system: NCI-H2405
Outline: as §1

NCI-H3122 = test system: NCI-H3122
Outline: as §1

NCI-H441 = test system: NCI-H441
Outline: as §1

NCI-H460 = test system: NCI-H460
Outline: as §1

NCI-H596 = test system: NCI-H596
Outline: as §1

NCI-H650 = test system: NCI-H650
Outline: as §1

PC-14 = test system: PC-14
Outline: as §1

PC-3 [JPC-3] = test system: PC-3 [JPC-3]
Outline: as §1

SK-LU-1 = test system: SK-LU-1
Outline: as §1

UMC-11 = test system: UMC-11
Outline: as §1

For `Cc1cnc(-c2cnc(NCCNc3ccc(C#N)cn3)nc2-c2ccc(Cl)cc2Cl)[nH]1` + COc1cccc2cc(-c3nc([C@H]4CC[C@H](C(=O)O)CC4)n4ncnc(N)c34)[nH]c12 [OSI-027] (partner 0.5 µM), the relative viability (A-427; first compound 0.08 µM) was 0.547, the relative viability (A-427; first compound 0.253 µM) was 0.41 and the relative viability (A-427; first compound 0.8 µM) was 0.608. The relative viability (A-427; first compound 2.53 µM) was 0.653, the relative viability (H3255; first compound 0.08 µM) was 0.745 and the relative viability (H3255; first compound 0.253 µM) was 0.535. For the same compound, the relative viability (H3255; first compound 0.8 µM) was 0.616, the relative viability (H3255; first compound 2.53 µM) was 0.592 and the relative viability (HARA; first compound 0.08 µM) was 0.554. For the same compound, the relative viability (HARA; first compound 0.253 µM) was 0.376, the relative viability (HARA; first compound 0.8 µM) was 0.469 and the relative viability (HARA; first compound 2.53 µM) was 0.562. The relative viability (HCC-15; first compound 0.08 µM) was 0.707, the relative viability (HCC-15; first compound 0.253 µM) was 0.665 and the relative viability (HCC-15; first compound 0.8 µM) was 0.512. For the same compound, the relative viability (HCC-15; first compound 2.53 µM) was 0.786, the relative viability (HCC-366; first compound 0.08 µM) was 1.01 and the relative viability (HCC-366; first compound 0.253 µM) was 0.489. It also gave a relative viability (HCC-366; first compound 0.8 µM) of 0.558, a relative viability (HCC-366; first compound 2.53 µM) of 0.695 and a relative viability (LXF-289; first compound 0.08 µM) of 0.926. For the same compound, the relative viability (LXF-289; first compound 0.253 µM) was 0.777, the relative viability (LXF-289; first compound 0.8 µM) was 0.882 and the relative viability (LXF-289; first compound 2.53 µM) was 0.829. It also gave a relative viability (NCI-H1437; first compound 0.08 µM) of 0.896, a relative viability (NCI-H1437; first compound 0.253 µM) of 0.88 and a relative viability (NCI-H1437; first compound 0.8 µM) of 0.916. The relative viability (NCI-H1437; first compound 2.53 µM) was 0.976, the relative viability (NCI-H1755; first compound 0.08 µM) was 0.81 and the relative viability (NCI-H1755; first compound 0.253 µM) was 0.737. For the same compound, the relative viability (NCI-H1755; first compound 0.8 µM) was 0.726, the relative viability (NCI-H1755; first compound 2.53 µM) was 0.756 and the relative viability (NCI-H1793; first compound 0.08 µM) was 0.322. The relative viability (NCI-H1793; first compound 0.253 µM) was 0.276, the relative viability (NCI-H1793; first compound 0.8 µM) was 0.191 and the relative viability (NCI-H1793; first compound 2.53 µM) was 0.279. For the same compound, the relative viability (NCI-H1915; first compound 0.08 µM) was 0.715, the relative viability (NCI-H1915; first compound 0.253 µM) was 0.586 and the relative viability (NCI-H1915; first compound 0.8 µM) was 0.658. For the same compound, the relative viability (NCI-H1915; first compound 2.53 µM) was 0.812, the relative viability (NCI-H1975; first compound 0.08 µM) was 0.839 and the relative viability (NCI-H1975; first compound 0.253 µM) was 0.647. It also gave a relative viability (NCI-H1975; first compound 0.8 µM) of 0.6, a relative viability (NCI-H1975; first compound 2.53 µM) of 0.399 and a relative viability (NCI-H2009; first compound 0.08 µM) of 0.729. The relative viability (NCI-H2009; first compound 0.253 µM) was 0.597, the relative viability (NCI-H2009; first compound 0.8 µM) was 0.609 and the relative viability (NCI-H2009; first compound 2.53 µM) was 0.496. For the same compound, the relative viability (NCI-H2023; first compound 0.08 µM) was 0.565, the relative viability (NCI-H2023; first compound 0.253 µM) was 0.395 and the relative viability (NCI-H2023; first compound 0.8 µM) was 0.431. It also gave a relative viability (NCI-H2023; first compound 2.53 µM) of 0.715, a relative viability (NCI-H2405; first compound 0.08 µM) of 0.655 and a relative viability (NCI-H2405; first compound 0.253 µM) of 0.654. It also gave a relative viability (NCI-H2405; first compound 0.8 µM) of 0.654, a relative viability (NCI-H2405; first compound 2.53 µM) of 0.615 and a relative viability (NCI-H3122; first compound 0.08 µM) of 1.4. The relative viability (NCI-H3122; first compound 0.8 µM) was 1.05, the relative viability (NCI-H3122; first compound 2.53 µM) was 0.967 and the relative viability (NCI-H441; first compound 0.08 µM) was 0.739. For the same compound, the relative viability (NCI-H441; first compound 0.253 µM) was 0.664, the relative viability (NCI-H441; first compound 0.8 µM) was 0.453 and the relative viability (NCI-H441; first compound 2.53 µM) was 0.459. For the same compound, the relative viability (NCI-H460; first compound 0.08 µM) was 0.749, the relative viability (NCI-H460; first compound 0.253 µM) was 0.582 and the relative viability (NCI-H460; first compound 0.8 µM) was 0.675. It also gave a relative viability (NCI-H460; first compound 2.53 µM) of 0.669, a relative viability (NCI-H596; first compound 0.08 µM) of 0.846 and a relative viability (NCI-H596; first compound 0.253 µM) of 0.73. The relative viability (NCI-H596; first compound 0.8 µM) was 0.483, the relative viability (NCI-H596; first compound 2.53 µM) was 0.668 and the relative viability (NCI-H650; first compound 0.08 µM) was 0.571. For the same compound, the relative viability (NCI-H650; first compound 0.253 µM) was 0.517, the relative viability (NCI-H650; first compound 0.8 µM) was 0.582 and the relative viability (NCI-H650; first compound 2.53 µM) was 0.486. For the same compound, the relative viability (PC-14; first compound 0.08 µM) was 1.21, the relative viability (PC-14; first compound 0.253 µM) was 0.673 and the relative viability (PC-14; first compound 0.8 µM) was 0.76. It also gave a relative viability (PC-14; first compound 2.53 µM) of 0.643, a relative viability (PC-3 [JPC-3]; first compound 0.08 µM) of 0.831 and a relative viability (PC-3 [JPC-3]; first compound 0.253 µM) of 0.757. The relative viability (PC-3 [JPC-3]; first compound 0.8 µM) was 0.692, the relative viability (PC-3 [JPC-3]; first compound 2.53 µM) was 0.742 and the relative viability (SK-LU-1; first compound 0.08 µM) was 0.344. For the same compound, the relative viability (SK-LU-1; first compound 0.253 µM) was 0.336, the relative viability (SK-LU-1; first compound 0.8 µM) was 0.35 and the relative viability (SK-LU-1; first compound 2.53 µM) was 0.463. The relative viability (UMC-11; first compound 0.08 µM) was 0.594, the relative viability (UMC-11; first compound 0.253 µM) was 0.477 and the relative viability (UMC-11; first compound 0.8 µM) was 0.591.
